Assay results as given in patent publication US20230256094A1, “CANCER RADIOSENSITIZATION BY IN SITU FORMATION OF GOLD NANOPARTICLES AND/OR GOLD NANOCLUSTERS” (BOARD OF REGENTS, THE UNIVERSITY OF TEXAS SYSTEM, priority 2020, published 2023).
“Also recorded” adds a separate entry of the source.

Legend:
NIH3T3 cells = experiment: Confocal fluorescence imaging of intracellular GNC formation; format: cell-based, mouse; settings: 1 mM in cell culture media, 24 hours; 561 nm excitation, 610 nm emission
Procedure: FIG. 3A presents fluorescence images of control NIH3T3 cells (left) and cells treated with Au^3+ (right). Both control and treated cells generated fluorescence with nuclear staining by Hoechst 33342. Fluorescent signal in the treated cells was associated with intracellular formation of gold nanoclusters (GNCs). Scale bars 20 μm.
Our initial evaluation of radiosensitization via intracellular GNP formation was performed with 3T3 mouse fibroblast cells. […] Radiosensitization with intracellular GNC formation (i.e., delivery of Au^3+) was compared with pre-fabricated albumin-coated GNCs (Albumin-GNC) prepared according to work by Xie^46 and control cells without treatment via MTS assay (FIG. 3B).

[1] = tested on: pancreatic cancer cells (MIAPACA2); experiment: Confocal fluorescence imaging of in situ GNC synthesis; format: cell-based, human; settings: MIAPACA2; 1 mM, 24 hours; 561 nm excitation, 610 nm emission
Procedure: (§1) FIG. 4 presents fluorescence confocal images of non-cancerous (HPDE) and cancerous (MIAPaCa2) pancreatic cells treated with either 1 mM of Au^3+ gold ions or premade albumin-GNCs at 1 mM Au^0 for 24 hours. (From left to right) Cells: untreated; treated with albumin-GNCs; treated with Au^3+ gold ions. […] The strong red fluorescence in cancer cells indicated intracellular synthesis of GNCs from gold ions. Scale bars are 25 μm.
(§2) We compared in situ synthesis of GNCs by pancreatic cancer cells (MIAPACA2) and pancreatic noncancerous cells (HPDE) (FIG. 4). Confocal fluorescence images were obtained using a Leica TCS SP8 confocal microscope with 561 nm excitation and 610 nm emission optimized for detection of GNCs.

[2] = tested on: pancreatic noncancerous cells (HPDE); experiment: as above; format: cell-based; settings: 1 mM, 24 hours, 561 nm excitation, 610 nm emission
Procedure: as §1, §2

[3] = tested on: pancreatic cancer cells (LTPA) vs pancreatic non-cancerous cells (MS1); experiment: Confocal fluorescence imaging of intracellular GNC formation, cancerous vs non-cancerous cells; format: cell-based
Procedure: Hoechst 33342 stain was used for nuclear contrast. Red channel was used for detection of GNCs with 610 nm emission and 561 nm laser excitation. Scale bars are 25 μm.
Our initial evaluation of intracellular gold nanocluster formation was performed with pancreatic cancer cells (LTPA) and pancreatic non-cancerous cells (MS1) (FIG. 6A-6B). […] Live cell nuclear stain, Hoechst 33342, was used to define the location of nuclei.
Radiosensitization due to intracellular GNC formation (i.e., delivery of Au^3+) was compared between cancerous and non-cancerous cells using a standard clonal assay. For radiosensitization, cells were incubated with 0.1 mM of buffered chloroauric acid in cell culture media for 24 hours. Then, the cells were lifted and plated in 30 mm culture dishes at optimized cell densities for observation of colony formation following irradiation with X-rays at dosages ranging from 0 to 8 Gy (XRAD SmART). […] The radiosensitization results correlated well with the fluorescence images showing greater production of GNCs by cancerous cells (FIG. 6A-6B). For LTPA pancreatic cancer cells the surviving fraction values decreased by a factor of 2.3x and 3.5x for radiation of 4 Gy and 6 Gy, respectively, in cells treated with gold atoms compared to untreated control (FIG. 6B). […]

[4] = tested on: cancerous (Mia-PaCa-2 and PANC1) vs normal (HPDE) pancreatic cells; experiment: Fluorescent confocal microscopy of GNC biosynthesis, cancerous vs normal cells; format: cell-based; settings: 1.00 mM, 24 hr (FIG. 8B)
Source text: (§3) Hoechst nuclear stain is the only imaging source in the untreated column and the primary imaging source in the albumin-GNC column and the non-cancer Au^3+ panel. Cells are live during imaging. Scale bars are 10 μm.
(§4) FIG. 8B quantifies GNC channel pixel intensity of the samples in each of the rows of FIG. 8A.
(§5) 2.2. Comparisons of efficiency of the GNC in situ synthesis by cancer and normal cells. We compared GNC biosynthesis between normal (HPDE) and cancerous (Mia-PaCa-2 and PANC1) pancreatic cells using fluorescent confocal microscopy (FIG. 8A). In addition, we compared the efficiency of the intracellular synthesis with extracellular uptake of prefabricated albumin coated GNCs (FIG. 8A). […] Further, there was 12.20- and 7.69-times greater fluorescence due to in situ synthesis relative to cellular uptake of prefabricated GNCs in PANC1 and Mia-PaCa-2 cells, respectively (FIG. 8B).

Mia-PaCa-2 cells = experiment: Fluorescence of in situ synthesis vs uptake of prefabricated GNCs; format: cell-based, human; settings: 1.00 mM, 24 hr (FIG. 8B)
Source text: as §3, §4, §5

PANC1 cells = experiment: as above; format: cell-based, human; settings: 1.00 mM, 24 hr (FIG. 8B)
Source text: as §3, §4, §5

[5] = tested on: PANC1 pancreatic cancer cells; experiment: Longitudinal live cell confocal fluorescence imaging of the intracellular distribution of GNCs; format: cell-based, human; settings: 0.20 mM, 20 hr time period
Source text: 2.1. Intracellular distribution and time dependence of gold nanocluster (GNC) in situ formation. […] Then, we used longitudinal live cell confocal fluorescence imaging to observe time dependence of the intracellular distribution of GNCs formed through biomineralization of Au^3+.

PANC1 pancreatic cancer = experiment: gamma H2AX foci quantification of double stranded DNA breaks; format: cell-based, human
Procedure: FIG. 21 reports on a mechanistic study of radiosensitization quantifying gamma H2AX foci through fluorescent antibody staining measured at 0, 4, and 24 hours, resulting from 24 hour 0.20 mM Au^3+ treatments (lower three) compared against non-treated (upper three) combined with either 0 Gy or 8 Gy x-ray irradiation. Treatments are in full cell media to PANC1 pancreatic cancer.
2.5. Evaluate radiosensitization efficacy and radiosensitization mechanisms for in situ synthetized GNCs. Based on the studies described in Sections 2.3-2.4, we selected the following conditions for radiosensitization studies in cell culture: 24 hr media conditioning by cells, 10% FBS (v/v) within, and 0.20 mM Au^3+ for 24 hrs.
Further, we characterized the mechanisms of radiosensitization through (i) quantification of double stranded DNA breaks via y-H2AX Foci (FIG. 21), (ii) mitochondrial polarization via JC-1 assay (FIG. 22), (iii) NADP total (FIG. 23) and NADP:NADPH ratio (FIG. 24) via NADP(H) assay, and (iv) peroxidation production via TBARS assay (FIG. 25).

[6] = tested on: 8505C thyroid cancer and Nthy-Ori-3-1 normal thyroid cells; experiment: MTT assay of cell viability, thyroid cells; format: cell-based; settings: 24 hour treatment, all concentrations

[Au+3].[Cl-].[Cl-].[Cl-].[Cl-].[H+] [Au^3+, chloroauric acid]
intracellular formation of GNCs (confocal fluorescence) (NIH3T3 cells): uniform formation of GNCs | GNC fluorescence / GNC formation [1]: ubiquitous | GNC fluorescence / GNC formation [2]: only sparsely seen | GNC formation in cancerous cells as compared to non-cancerous cells [3]: striking increase in GNC formation | greater fluorescence due to GNC biomineralization in cancerous cells than in non-cancerous HPDE [4]: ~2 fold | greater fluorescence due to in situ synthesis relative to cellular uptake of prefabricated GNCs (Mia-PaCa-2 cells): 7.69 times | greater fluorescence due to in situ synthesis relative to cellular uptake of prefabricated GNCs (PANC1 cells): 12.20 times | subcellular region of greatest GNC formation [5]: nucleolus had the highest rate of GNC formation; also recorded: greatest in the nucleolus | fewer DNA breaks than in untreated control (PANC1 pancreatic cancer; 4 hrs after 8 Gy irradiation, 0.20 mM, 24 hrs): 29% | repair of DNA breaks (PANC1 pancreatic cancer; 24 hr post-irradiation, 8 Gy): no significant repair | viability of cancer cells compared with normal cells (MTT) [6]: significantly lower viability of cancer cells than normal cells
